Data reported in patent US20030082722A1, “Method for amplifying expression from a cell specific promoter” (priority 2001, published 2003).
Like-named read-outs stand apart in the source and are kept apart here.

B1: TRAIL protein: recombinant soluble TRAIL protein (R & D Systems) (protein, UniProt P50591 39-281, looked up)
extracellular domain: TNELKQMQDKYSKSGIACFLKEDDSYWDPNDEESMNSPCWQVKWQLRQLVRKMILRTSEETISTVQEKQQNISPLVRERGPQRVAAHITGTRGRSNTLSSPNSKNEKALGRKINSWESSRSGHSFLSNLHLRNGELVIHEKGFYYIYSQTYFRFQEEIKENTKNDKQMVQYIYKYTSYPDPILLMKSARNSCWSKDAEYGLYSIYQGGIFELKENDRIFVSVTNEHLIDMDHEASFFGAFLVG
modifications: extracellular domain recombinant soluble

Assays:
MDA-MB-231 = experiment: IC50 of chemotherapeutic agents and Ad/gTRAIL, parental cells; format: cell-based, human
Procedure: Cell Lines and Reagents. Human breast cancer cell lines MCF7, MDA-MB-231, MDA-MB-453, and MDA-MB-468 were grown in RPMI 1640 medium supplemented with 10% heat-inactivated fetal bovine serum, and antibiotics, and glutamine. Immortalized nontransformed breast epithelial cell lines MCF10A and MCF10F and normal human mammary epithelial cells (NHMEC) were purchased from Clonetics (San Diego, Calif.). Primary normal human mammary epithelial cells (PNHMEC) isolated from normal breast tissue (Stampfer and Yaswen, 1994) were provided by Dr. Yinhua Yu (The University of Texas M. D. Anderson Cancer Center). Doxorubicin-resistant MDA-MB-231 cells were obtained through the stepwise exposure of the parental cells to doxorubicin. […] The residual surviving cells were then allowed to grow in fresh medium. When these residual cells reached 70-80% confluence in the plate, they were treated again with the same concentration of doxorubicin. After this cycle was repeated several times, the concentration of doxorubicin was increased multiple times followed by the regrowth of cells. […] Other agents used in these experiments included gemcitabine (Eli Lilly and Co., Indianapolis, Ind.), vinorelbine (Pierre Fabre, Idron 64320, France), paclitaxel (Bristol-Myers Squibb Co., Princeton, N.J.), irinotecan (Pharmacia & Upjohn Co., Kalamazoo, Mich.), floxuridine (Ben Venue Labs, Inc., Bedford, Ohio), and TRAIL protein (R & D Systems, Minneapolis, Minn.).
Assays. Cell viability, flow cytometry, and Western blot analysis were performed as described in previous examples. See also Gu et al., 2000 and Kagawa et al., 2001. Biochemical analysis, using β-galactosidase was determined as dexcribed in Example 1. For Western analysis anti-caspase-8 (R&D systems, Minneapolis, Minn.), anti-caspase-3 (BD PharMingen, San Diego, Calif.), anti-PARP (BD PharMingen), anti-GFP (Clontech Inc., Palo Alto, Calif.), and anti-hTRAIL (Alexis, San Diego, Calif.) antibodies were used. Apoptosis in tumors was assessed by in situ TUNEL staining as decribed in Example 3.
Statistical Analysis. Differences among the treatment groups were assessed as described in previous examples. Survival was assessed using the Kaplan-Meier method. The drug concentration that inhibited cells growth by 50% (IC50) was calculated by CurveExpert 1.3 software (Starkville, Miss.).

DLD1/TRAIL-R = experiment: Sensitizing TRAIL-resistant cells to Ad/gTRAIL by chemotherapeutic agents; conditions: Ad/gTRAIL 1000 viral particles/cell; 96 h
Procedure: Chemotherapeutic agents concentrations are shown on the bottom of each graph. […] Cell viability was determined at 96 h after treatment. Levels are mean+/−SD of two quadruplet assays. […] Cells were treated with adenovector at 1000 moi (vp), 5-FU 50 μm and 1.25 μm MMC. In combination group, the dose were the same as the single agent group. Cells were harvested at 96 h after treatment and cell lysate was used for Western blot analysis.

231/ADR = experiment: IC50 of chemotherapeutic agents and Ad/gTRAIL, doxorubicin-resistant cells; format: cell-based, human; conditions: for IC50: Homo sapiens
Procedure: Cell Lines and Reagents. […] Immortalized nontransformed breast epithelial cell lines MCF10A and MCF10F and normal human mammary epithelial cells (NHMEC) were purchased from Clonetics (San Diego, Calif.). […] Doxorubicin-resistant MDA-MB-231 cells were obtained through the stepwise exposure of the parental cells to doxorubicin. […] The residual surviving cells were then allowed to grow in fresh medium. When these residual cells reached 70-80% confluence in the plate, they were treated again with the same concentration of doxorubicin. After this cycle was repeated several times, the concentration of doxorubicin was increased multiple times followed by the regrowth of cells.
Assays. Cell viability, flow cytometry, and Western blot analysis were performed as described in previous examples. […] For Western analysis anti-caspase-8 (R&D systems, Minneapolis, Minn.), anti-caspase-3 (BD PharMingen, San Diego, Calif.), anti-PARP (BD PharMingen), anti-GFP (Clontech Inc., Palo Alto, Calif.), and anti-hTRAIL (Alexis, San Diego, Calif.) antibodies were used.
Statistical Analysis. Differences among the treatment groups were assessed as described in previous examples. Survival was assessed using the Kaplan-Meier method.

[1] = system: lung metastasis derived from breast cancer cells 231/ADR; experiment: Lung metastatic tumor model, aerosolized Ad/gTRAIL with paclitaxol; format: in vivo, nude mice; conditions: day 35 after starting treatment
Procedure: The aerosol vector administration are the following: adenovirus of 1×10^12 particles was diluted in PBS to a final volume of Iml and was mixed with 500 μl (5 mg) of protamine. […] The complex was placed into the nebulizer chamber. The aerosol from the nebulizer was passed through a sealed plastic cage that housed the mice. The exposure required approximately 50 minutes, during which time the mice were allowed to move freely about the cage.

lung = experiment: Reporter gene expression in lung after aerosolized vector; format: in vivo, mice; conditions: protamine 1 mg/ml, hydrocortisone 250 ng/ml
Procedure: The aerosol vector administration are the following: adenovirus of 1×10^12 particles was diluted in PBS to a final volume of Iml and was mixed with 500 μl (5 mg) of protamine. The Protamine-adenovirus complex was mixed with 5 ml hydrocortisone (concentration of 250 ng/ml in H2O) after incubating 10 min at room temperature. The complex was placed into the nebulizer chamber. The aerosol from the nebulizer was passed through a sealed plastic cage that housed the mice. The exposure required approximately 50 minutes, during which time the mice were allowed to move freely about the cage.
Treatment of lung metastasis by aerosolized vector administration was also tested. […] Subsequent aerosol administration of adenovectors will contain protamine and hydrocortisone in the vector solution.

[2] = system: MDA-MB-231, MDA-MB-468, MDA-MB-453 and MCF7 cells; experiment: Cell viability after recombinant TRAIL protein; format: cell-based, human
Procedure: Cell Lines and Reagents. Human breast cancer cell lines MCF7, MDA-MB-231, MDA-MB-453, and MDA-MB-468 were grown in RPMI 1640 medium supplemented with 10% heat-inactivated fetal bovine serum, and antibiotics, and glutamine. Immortalized nontransformed breast epithelial cell lines MCF10A and MCF10F and normal human mammary epithelial cells (NHMEC) were purchased from Clonetics (San Diego, Calif.). Primary normal human mammary epithelial cells (PNHMEC) isolated from normal breast tissue (Stampfer and Yaswen, 1994) were provided by Dr. Yinhua Yu (The University of Texas M. D. Anderson Cancer Center). Doxorubicin-resistant MDA-MB-231 cells were obtained through the stepwise exposure of the parental cells to doxorubicin. In brief, the parental MDA-MB-231 cells were treated with doxorubicin (Ben Venue Labs, Inc., Bedford, Ohio) at concentration of 2 μM (1.16 μg/ml, which is the IC80 of MDA-MB-231 cells). Most cells were killed after day 4 of treatment. The residual surviving cells were then allowed to grow in fresh medium. When these residual cells reached 70-80% confluence in the plate, they were treated again with the same concentration of doxorubicin. […]
To test whether these cells were similarly sensitive to soluble TRAIL protein, cells were treated with recombinant TRAIL protein at various concentrations up to 800 ng/ml. Cell viability was then determined at 24, 48, and 96 h after treatment. […]

[3] = Homo sapiens, MDA-MB-231, read-out: IC50

From the text for H1299 lung cancer cells: Construction of Ad/gBax. […] This bicistronic vector as modified combined the two expression cassettes of the Tet-Off system (BD Clontech, San Francisco, Calif., USA) into a single vector (FIG. 28). […] The second cassette contained the cDNA of the GFP/Bax fusion protein under the control of a compound promoter consisting of TRE and the minimal immediate early promoter of CMV. GFP was included to facilitate the selection of recombinant virus and the detection of expression products.

| Molecule | IC50 (MDA-MB-231; Homo sapiens, MDA-MB-231) | sensitization of DLD1/TRAIL-R to Ad/gTRAIL (cell viability) (DLD1/TRAIL-R) | IC50 (231/ADR) | also measured |
| --- | --- | --- | --- | --- |
| COc1cccc2c1C(=O)c1c(O)c3c(c(O)c1C2=O)C[C@@](O)(C(=O)CO)C[C@@H]3O[C@H]1C[C@H](N)[C@H](O)[C@H](C)O1 [Doxorubicin, doxorubicin] | 1.14 µM | can sensitize DLD1/TRAIL-R to Ad/gTRAIL at certain concentrations | 97.6 µM | IC80 (MDA-MB-231; Homo sapiens, MDA-MB-231): 2 µM; susceptibility to doxorubicin (MDA-MB-231; parental MDA-MB-231, 2 μM): susceptible; susceptibility to doxorubicin (231/ADR; 16 μM): resistant |
| O=c1[nH]c(=O)n([C@H]2C[C@H](O)[C@@H](CO)O2)cc1F [Floxuridine, floxuridine] | 0.1 µM | can be sensitized to Ad/gTRAIL | 4.7 µM |  |
| Nc1ccn([C@@H]2O[C@H](CO)[C@@H](O)C2(F)F)c(=O)n1 [Gemcitabine, gemcitabine] |  |  | 0.037 µM | IC50 (MDA-MB-231; [3]): 0.0186 µM |
| CCc1c2c(nc3ccc(OC(=O)N4CCC(N5CCCCC5)CC4)cc13)-c1cc3c(c(=O)n1C2)COC(=O)[C@]3(O)CC [Irinotecan, irinotecan] | 1.54 µM |  | 5.94 µM |  |
| CC(=O)O[C@H]1C(=O)[C@@]2(C)[C@H]([C@H](OC(=O)c3ccccc3)[C@]3(O)C[C@H](OC(=O)[C@H](O)[C@@H](NC(=O)c4ccccc4)c4ccccc4)C(C)=C1C3(C)C)[C@]1(OC(C)=O)CO[C@@H]1C[C@@H]2O [Paclitexol, paclitaxel] | 0.00346 µM |  | 0.0169 µM | numbers of tumor nodules in the lung [1]: dramatically reduced the numbers of tumor nodules |
| CN(C)[C@@H]1C(O)=C(C(N)=O)C(=O)[C@@]2(O)C(O)=C3C(=O)c4c(O)cccc4[C@@](C)(O)[C@H]3C[C@@H]12 [Tc, tetracycline] |  |  |  | concentration that started to inhibit GFP-Bax expression (H1299 lung cancer cells): 1 ng/mL |
| CCC1=C[C@@H]2CN(C1)Cc1c([nH]c3ccccc13)[C@@](C(=O)OC)(c1cc3c(cc1OC)N(C)[C@H]1[C@@](O)(C(=O)OC)[C@H](OC(C)=O)[C@]4(CC)C=CCN5CC[C@]31[C@@H]54)C2 [Vinorelbine, vinorelbine] |  |  | 0.0229 µM | IC50 (MDA-MB-231; [3]): 0.0024 µM |
| O=c1[nH]cc(F)c(=O)[nH]1 [fluorouracil] |  | can sensitize DLD1/TRAIL-R to Ad/gTRAIL at certain concentrations |  |  |
| C[C@]12CCC(=O)C=C1CC[C@@H]1[C@@H]2[C@@H](O)C[C@@]2(C)[C@H]1CC[C@]2(O)C(=O)CO [hydrocortisone] |  |  |  | reporter gene LacZ expression in lung (lung): dramatically increased |
| CO[C@@]12[C@H](COC(N)=O)C3=C(C(=O)C(C)=C(N)C3=O)N1C[C@@H]1N[C@@H]12 [mutamycin] |  | can sensitize DLD1/TRAIL-R to Ad/gTRAIL at certain concentrations |  |  |
| protamine |  |  |  | reporter gene LacZ expression in lung (lung): dramatically increased |
| B1 |  |  |  | sensitivity to TRAIL protein (cell viability) ([2]; MDA-MB-231 and MDA-MB-468, up to 800 ng/ml, 24, 48, 96 h): sensitive; sensitivity to TRAIL protein (cell viability) ([2]; MDA-MB-453 and MCF7, 800 ng/ml): resistant |
